Laboratory results reported in US9833497B2, “Human originated EGF domain proteins and use of the same” (CHENGDU SOURCEBIO LIMITED-LIABILITY COMPANY, priority 2013, dated 2017).

Assays:
Format in all cases: cell-based
[1] = system: Aeromonas hydrophila; assay: MIC against Gram-negative bacteria: Aeromonas hydrophila
Summary of the method: (§1)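 The recombinant human-originated EGF domain proteins were serially diluted two-fold against bacteria at 5×10^5 CFU/mL in LB medium. After shaken incubation at 37° C, the lowest concentration with no bacterial growth was recorded as the MIC.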

[2] = system: Klebsiella pneumonia; assay: MIC against Gram-negative bacteria: Klebsiella pneumonia
Summary of the method: as §1

[3] = system: Serratia marcescens; assay: MIC against Gram-negative bacteria: Serratia marcescens
Summary of the method: as §1

[4] = system: Proteus mirabilis; assay: MIC against Gram-negative bacteria: Proteus mirabilis
Summary of the method: as §1

[5] = system: Citrobacter diversus; assay: MIC against Gram-negative bacteria: Citrobacter diversus
Summary of the method: as §1

[6] = system: Pseudomonas aeruginosa; assay: MIC against Gram-negative bacteria: Pseudomonas aeruginosa
Summary of the method: as §1

[7] = system: E. coli BL21; assay: MIC against Gram-negative bacteria: E. coli BL21
Summary of the method: as §1

[8] = system: Proteus vulgaris; assay: MIC against Gram-negative bacteria: Proteus vulgaris
Summary of the method: as §1

[9] = system: Enterobacter cloacae; assay: MIC against Gram-negative bacteria: Enterobacter cloacae
Summary of the method: as §1

[10] = system: E. coli DH5α; assay: Antibacterial activity: MIC and growth curve against E. coli DH5α in 96-well plate; conditions: minimal inhibitory concentration against E. coli DH5α; 96-well plate, 5×10^5 CFU/mL, 37° C., judged after 8 h
Summary of the method: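 Log-phase DH5α (OD600 about 0.5, 37° C, 185 rpm in LB) was pelleted, resuspended in fresh LB and seeded at 5×10^5 CFU/mL with recombinant protein at 50, 25 and 12.5 μg/mL (two-fold series), in triplicate. Plates were shaken at 175 rpm, 37° C, and OD600 was read every 30 min. MIC was the lowest concentration with no growth.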

[11] = system: Moraxella catarrhalis; assay: MIC against Gram-negative bacteria: Moraxella catarrhalis
Summary of the method: as §1

[12] = 96-well plate, 5×10^5 CFU/mL, 37° C., 10 h
[13] = 10 h cultivation at 37° C., 5×10^5 CFU/mL, two-fold serial dilution

PRT799 (FHACSCHNGASCSAEDGACHCTPGWTGLFCT; listed as Homo sapiens)
MIC (μg/mL) A. hydrophila ([1]; A. hydrophila, 10 h cultivation at 37° C., 5×10^5 CFU/mL): 12.5 µg/mL | MIC (μg/mL) K. pneumonia ([2]; K. pneumonia, 10 h cultivation at 37° C., 5×10^5 CFU/mL): 12.5 µg/mL | MIC (μg/mL) S. marcescens ([3]; S. marcescens, 10 h cultivation at 37° C., 5×10^5 CFU/mL): 25 µg/mL | MIC (μg/mL) P. mirabilis ([4]; P. mirabilis, 10 h cultivation at 37° C., 5×10^5 CFU/mL): 12.5 µg/mL | MIC (μg/mL) C. diversus ([5]; C. diversus, 10 h cultivation at 37° C., 5×10^5 CFU/mL): 12.5 µg/mL | MIC (μg/mL) P. aeruginosa ([6]; P. aeruginosa, 10 h cultivation at 37° C., 5×10^5 CFU/mL): 12.5 µg/mL | MIC (μg/mL) E. coli BL21 ([7]; E. coli BL21, 10 h cultivation at 37° C., 5×10^5 CFU/mL): 12.5 µg/mL | MIC (μg/mL) P. vulgaris ([8]; P. vulgaris, 10 h cultivation at 37° C., 5×10^5 CFU/mL): 50 µg/mL | MIC (μg/mL) E. cloacae ([9]; E. cloacae, 10 h cultivation at 37° C., 5×10^5 CFU/mL): 5 µg/mL | MIC [10]: 25 µg/mL | MIC (μg/mL) M. catarrhalis ([11]; M. catarrhalis, 10 h cultivation at 37° C., 5×10^5 CFU/mL): 12.5 µg/mL

PRT1386 (GSRACPRDCRGRGRCENGVCVCNAGYSGEDC; listed as Homo sapiens)
MIC against A. hydrophila ([1]; Aeromonas hydrophila, 5×10^5 CFU/mL, 10 h cultivation at 37° C.): 12.5 µg/mL | MIC against K. pneumonia ([2]; Klebsiella pneumonia, 5×10^5 CFU/mL, 10 h cultivation at 37° C.): 12.5 µg/mL | MIC against S. marcescens ([3]; Serratia marcescens, 5×10^5 CFU/mL, 10 h cultivation at 37° C.): 12.5 µg/mL | MIC against P. mirabilis ([4]; Proteus mirabilis, 5×10^5 CFU/mL, 10 h cultivation at 37° C.): 12.5 µg/mL | MIC against C. diversus ([5]; Citrobacter diversus, 5×10^5 CFU/mL, 10 h cultivation at 37° C.): 12.5 µg/mL | MIC against P. aeruginosa ([6]; Pseudomonas aeruginosa, 5×10^5 CFU/mL, 10 h cultivation at 37° C.): 25 µg/mL | MIC against E. coli BL21 ([7]; E. coli BL21, 5×10^5 CFU/mL, 10 h cultivation at 37° C.): 12.5 µg/mL | MIC against P. vulgaris ([8]; Proteus vulgaris, 5×10^5 CFU/mL, 10 h cultivation at 37° C.): 25 µg/mL | MIC against E. cloacae ([9]; Enterobacter cloacae, 5×10^5 CFU/mL, 10 h cultivation at 37° C.): 25 µg/mL | MIC [10]: 25 µg/mL | MIC against M. catarrhalis ([11]; Moraxella catarrhalis, 5×10^5 CFU/mL, 10 h cultivation at 37° C.): 12.5 µg/mL

PRT7 (TCLSSKEGTICSGNGVCSNELKCVCNRHWIGSDCN; listed as Homo sapiens)
MIC (μg/mL) A. hydrophila ([1]; Aeromonas hydrophila, 96-well plate, 5×10^5 CFU/mL, 37° C., 10 h): 50 µg/mL | MIC (μg/mL) K. pneumonia ([2]; Klebsiella pneumonia, 96-well plate, 5×10^5 CFU/mL, 37° C., 10 h): 12.5 µg/mL | MIC (μg/mL) S. marcescens ([3]; Serratia marcescens, 96-well plate, 5×10^5 CFU/mL, 37° C., 10 h): 12.5 µg/mL | MIC (μg/mL) P. mirabilis ([4]; Proteus mirabilis, 96-well plate, 5×10^5 CFU/mL, 37° C., 10 h): 50 µg/mL | MIC (μg/mL) C. diversus ([5]; Citrobacter diversus, 96-well plate, 5×10^5 CFU/mL, 37° C., 10 h): 12.5 µg/mL | MIC (μg/mL) P. aeruginosa ([6]; Pseudomonas aeruginosa, 96-well plate, 5×10^5 CFU/mL, 37° C., 10 h): 25 µg/mL | MIC (μg/mL) E. coli BL21 ([7]; E. coli BL21, 96-well plate, 5×10^5 CFU/mL, 37° C., 10 h): 25 µg/mL | MIC (μg/mL) P. vulgaris ([8]; Proteus vulgaris, 96-well plate, 5×10^5 CFU/mL, 37° C., 10 h): 50 µg/mL | MIC (μg/mL) E. cloacae ([9]; Enterobacter cloacae, 96-well plate, 5×10^5 CFU/mL, 37° C., 10 h): 12.5 µg/mL | MIC [10]: 12.5 µg/mL | MIC (μg/mL) M. catarrhalis ([11]; Moraxella catarrhalis, 96-well plate, 5×10^5 CFU/mL, 37° C., 10 h): 25 µg/mL

PRT997 (EVDECLSDPCPVGASCLDLPGAFFCLCPSGFTGQLCE; listed as Homo sapiens)
MIC ([1]; A. hydrophila, 10 h cultivation at 37° C.): 12.5 µg/mL | MIC ([2]; K. pneumonia, 10 h cultivation at 37° C.): 12.5 µg/mL | MIC ([3]; S. marcescens, 10 h cultivation at 37° C.): 25 µg/mL | MIC ([4]; P. mirabilis, 10 h cultivation at 37° C.): 25 µg/mL | MIC ([5]; C. diversus, 10 h cultivation at 37° C.): 50 µg/mL | MIC ([6]; P. aeruginosa, 10 h cultivation at 37° C.): 12.5 µg/mL | MIC ([7]; E. coli BL21, 10 h cultivation at 37° C.): 12.5 µg/mL | MIC ([8]; P. vulgaris, 10 h cultivation at 37° C.): 50 µg/mL | MIC ([9]; E. cloacae, 10 h cultivation at 37° C.): 50 µg/mL | MIC [10]: 12.5 µg/mL | MIC ([11]; M. catarrhalis, 10 h cultivation at 37° C.): 12.5 µg/mL

PRT704 (LLSNCQQLNCQYKCTMVRNSTRCYCEDGFEITEDGRSCK; listed as Homo sapiens)
MIC A. hydrophila [1, 12]: 50 µg/mL | MIC K. pneumonia [2, 12]: 25 µg/mL | MIC S. marcescens [3, 12]: 12.5 µg/mL | MIC P. mirabilis [4, 12]: 50 µg/mL | MIC C. diversus [5, 12]: 25 µg/mL | MIC P. aeruginosa [6, 12]: 50 µg/mL | MIC E. coli BL21 [7, 12]: 25 µg/mL | MIC P. vulgaris [8, 12]: 25 µg/mL | MIC E. cloacae [9, 12]: 50 µg/mL | MIC [10]: 50 µg/mL | MIC M. catarrhalis [11, 12]: 12.5 µg/mL

PRT1144 (NANDCLSNPCLHGRCTELINEYPCSCDADGTSTQCK; listed as Homo sapiens)
MIC A. hydrophila [1, 13]: 12.5 µg/mL | MIC K. pneumonia [2, 13]: 12.5 µg/mL | MIC S. marcescens [3, 13]: 25 µg/mL | MIC P. mirabilis [4, 13]: 25 µg/mL | MIC C. diversus [5, 13]: 25 µg/mL | MIC P. aeruginosa [6, 13]: 50 µg/mL | MIC E. coli BL21 [7, 13]: 12.5 µg/mL | MIC P. vulgaris [8, 13]: 12.5 µg/mL | MIC E. cloacae [9, 13]: 50 µg/mL | MIC [10]: 50 µg/mL | MIC M. catarrhalis [11, 13]: 50 µg/mL

PRT709 (SCQLCDGYCYNGGTCQLDPETNVPVCLCSTNWSGTQCE; listed as Homo sapiens)
MIC A. hydrophila [1, 12]: 50 µg/mL | MIC K. pneumonia [2, 12]: 25 µg/mL | MIC S. marcescens [3, 12]: 50 µg/mL | MIC P. mirabilis [4, 12]: 25 µg/mL | MIC C. diversus [5, 12]: 12.5 µg/mL | MIC P. aeruginosa [6, 12]: 50 µg/mL | MIC E. coli BL21 [7, 12]: 12.5 µg/mL | MIC P. vulgaris [8, 12]: 12.5 µg/mL | MIC E. cloacae [9, 12]: 12.5 µg/mL | MIC [10]: 50 µg/mL | MIC M. catarrhalis [11, 12]: 50 µg/mL
